Starred links: 1 amine or outer side, 2 acyl side, 3 side chain; linkers in the order of their positions; H or OH if unused. Non-standard residues stand in square brackets, D forms with d. Residues, ends and D or L forms follow the SMILES beside them. Groups on a side chain read outwards from the residue. *: point of attachment. X1 = COc1cc2c(cc1-c1cccc(N*)c1)-c1c(c(C(=O)N3CCOCC3(C)C)nn1-c1cc(Cl)cc(Cl)c1)CO2; DOTA = O=C(O)CN1CCN(CC(=O)O)CCN(CC(=O)*)CCN(CC(=O)O)CC1; Suc = O=C(CCC(=O)[*:2])[*:1]
The molecules below were run against T1, human follicle-stimulating hormone receptor (FSHR) (Homo sapiens, UniProt P23945) (assay: Measurement of agonist cAMP production by activation of human FSHR). Conditions: CHO-K1 human FSHR cells, 30 minutes at 37° C., HTRF cAMP kit; read-out: hFSHR Agonist cAMP EC50.
T1 construct: host or cells: CHO-K1
T1 sequence (P23945 18-695): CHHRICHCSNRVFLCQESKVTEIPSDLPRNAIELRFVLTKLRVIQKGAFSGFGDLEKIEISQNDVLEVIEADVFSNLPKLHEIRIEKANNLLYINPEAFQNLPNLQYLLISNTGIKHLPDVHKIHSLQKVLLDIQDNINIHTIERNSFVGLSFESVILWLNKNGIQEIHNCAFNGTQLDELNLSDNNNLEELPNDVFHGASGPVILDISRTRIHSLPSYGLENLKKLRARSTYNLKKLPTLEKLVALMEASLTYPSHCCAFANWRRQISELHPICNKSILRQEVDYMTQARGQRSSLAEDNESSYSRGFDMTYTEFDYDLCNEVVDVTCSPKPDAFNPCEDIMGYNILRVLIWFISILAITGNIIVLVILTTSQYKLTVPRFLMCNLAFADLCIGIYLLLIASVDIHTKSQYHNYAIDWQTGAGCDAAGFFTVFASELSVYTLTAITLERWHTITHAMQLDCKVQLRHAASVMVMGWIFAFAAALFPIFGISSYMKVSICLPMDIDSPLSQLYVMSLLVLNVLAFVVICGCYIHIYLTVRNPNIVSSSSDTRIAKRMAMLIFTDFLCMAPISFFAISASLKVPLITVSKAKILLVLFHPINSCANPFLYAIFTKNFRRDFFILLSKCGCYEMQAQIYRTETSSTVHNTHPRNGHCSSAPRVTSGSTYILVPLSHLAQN
Type: cell-based
Procedure, shortened: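 cAMP output was measured by HTRF after 30 min at 37 °C agonist exposure (0–10,000 nM final) in stably FSHR-transfected CHO-K1 cells. Lysate cAMP was read off a standard curve and fitted to obtain half-maximal EC50.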

With COc1cc2c(cc1-c1cccc(NC(=O)CCC(=O)NCCCC[C@@H](NC(=O)[C@@H](CCC(=O)O)NC(=O)[C@@H](CCCNC(=N)N)NC(=O)[C@@H](CCC(=O)O)NC(=O)[C@@H](CCCNC(=N)N)NC(=O)[C@@H](C)NC(=O)CN3CCN(CC(=O)O)CCN(CC(=O)O)CCN(CC(=O)O)CC3)C(=O)N[C@H](C)C(N)=O)c1)-c1c(c(C(=O)N3CCOCC3(C)C)nn1-c1cc(Cl)cc(Cl)c1)CO2 [Compound 84, 2,2′,2″-(10-((4R,7R,10R,13R,16R,19R)-19-(((R)-1-amino-1-oxopropan-2yl)carbamoyl)-10,16-bis(2-carboxyethyl)-28-((3-(1-(3,5-dichlorophenyl)-3-(3,3-dimethylmorpholine-4-carbonyl)-7-methoxy-1,4-dihydrochromeno|4,3-clpyrazol-8-yl)phenyl)amino)-7,13-bis(3-guanidinopropyl)-4-methyl-2,5,8,11,14,17,25,28-octaoxo-3,6,9,12,15,18,24-heptaazaoctacosyl)-1,4,7,10-tetraazacyclododecane-1,4,7-triyl)triacetic acid] ({DOTA}-[dA][dR][dE][dR][dE][dK]([Suc-X1])[dA]-NH2) as the molecule, how does the EC50 read?
The EC50 was 0.01 to 0.1 µM.

COc1cc2c(cc1-c1cccc(NC(=O)CCC(=O)NCCCC[C@@H](NC(=O)[C@@H](CO)NC(=O)[C@@H](CC(N)=O)NC(=O)[C@@H](CO)NC(=O)[C@@H](CC(N)=O)NC(=O)[C@@H](C)NC(=O)CN3CCN(CC(=O)O)CCN(CC(=O)O)CCN(CC(=O)O)CC3)C(=O)N[C@H](C)C(N)=O)c1)-c1c(c(C(=O)N3CCOCC3(C)C)nn1-c1cc(Cl)cc(Cl)c1)CO2 [Compound 85] ({DOTA}-[dA][dN][dS][dN][dS][dK]([Suc-X1])[dA]-NH2) was tested. Which EC50 did it give?
Its EC50 is 0.01 to 0.1 µM.

With COc1cc2c(cc1-c1cccc(NC(=O)CCC(=O)NCCCC[C@@H](NC(=O)[C@@H](C)NC(=O)[C@@H](CCC(=O)O)NC(=O)[C@@H](C)NC(=O)CN3CCN(CC(=O)O)CCN(CC(=O)O)CCN(CC(=O)O)CC3)C(=O)N[C@H](C)C(=O)N[C@H](CCC(=O)O)C(=O)N[C@H](C)C(N)=O)c1)-c1c(c(C(=O)N3CCOCC3(C)C)nn1-c1cc(Cl)cc(Cl)c1)CO2 [Compound 86, (4R,7R,10R,13R,16R)-4-(((R)-1-amino-1-oxopropan-2-yl)carbamoyl)-10-(4-(4((3-(1-(3,5-dichlorophenyl)-3-(3,3-dimethylmorpholine-4-carbonyl)-7-methoxy-1,4-dihydrochromeno|4,3-clpyrazol-8-yl)phenyl)amino)-4-oxobutanamido)butyl)-7,13-dimethyl-6,9,12,15-tetraoxo-16-((R)-2-(2-(4,7,10-tris(carboxymethyl)-1,4,7,10-tetraazacyclododecan-1-yl)acetamido)propanamido)-5,8,11,14-tetraazanonadecanedioic acid] ({DOTA}-[dA][dE][dA][dK]([Suc-X1])[dA][dE][dA]-NH2) as the molecule, how does the EC50 read?
The EC50 was 0.01 to 0.1 µM.

For COc1cc2c(cc1-c1cccc(NC(=O)CCC(=O)NCCCC[C@@H](NC(=O)[C@@H](C)NC(=O)CN3CCN(CC(=O)O)CCN(CC(=O)O)CCN(CC(=O)O)CC3)C(=O)N[C@H](CCC(=O)O)C(=O)N[C@H](CCC(=O)O)C(=O)N[C@H](CCC(=O)O)C(=O)N[C@H](CCC(=O)O)C(=O)N[C@H](C)C(N)=O)c1)-c1c(c(C(=O)N3CCOCC3(C)C)nn1-c1cc(Cl)cc(Cl)c1)CO2 [Compound 87, 2,2′,2″-(10-((4R,7R,10R,13R,16R,19R,22R)-23-amino-10,13,16,19-tetrakis(2carboxyethyl)-7-(4-(4-((3-(1-(3,5-dichlorophenyl)-3-(3,3-dimethylmorpholine-4-carbonyl)-7-methoxy-1,4-dihydrochromeno|4,3-c|pyrazol-8-yl)phenyl)amino)-4-oxobutanamido)butyl)-4,22-dimethyl-2,5,8,11,14,17,20,23-octaoxo-3,6,9,12,15,18,21-heptaazatricosyl)-1,4,7,10-tetraazacyclododecane-1,4,7-triyl)triacetic acid] ({DOTA}-[dA][dK]([Suc-X1])[dE][dE][dE][dE][dA]-NH2), which EC50 is on record?
The EC50 was 0.01 to 0.1 µM.

How did the EC50 turn out when COc1cc2c(cc1-c1cccc(NC(=O)CCC(=O)NCCCC[C@@H](NC(=O)[C@@H](CCC(=O)O)NC(=O)[C@@H](CCC(=O)O)NC(=O)[C@@H](C)NC(=O)CN3CCN(CC(=O)O)CCN(CC(=O)O)CCN(CC(=O)O)CC3)C(=O)N[C@H](CCC(=O)O)C(=O)N[C@H](CCC(=O)O)C(=O)N[C@H](C)C(N)=O)c1)-c1c(c(C(=O)N3CCOCC3(C)C)nn1-c1cc(Cl)cc(Cl)c1)CO2 [Compound 88] ({DOTA}-[dA][dE][dE][dK]([Suc-X1])[dE][dE][dA]-NH2) was run?
Its EC50 is 0.01 to 0.1 µM.

With COc1cc2c(cc1-c1cccc(NC(=O)CCC(=O)NCCCC[C@@H](NC(=O)[C@@H](CCC(=O)O)NC(=O)[C@@H](CCCNC(=N)N)NC(=O)[C@@H](C)NC(=O)CN3CCN(CC(=O)O)CCN(CC(=O)O)CCN(CC(=O)O)CC3)C(=O)N[C@H](CCCNC(=N)N)C(=O)N[C@H](CCCNC(=N)N)C(=O)N[C@H](C)C(N)=O)c1)-c1c(c(C(=O)N3CCOCC3(C)C)nn1-c1cc(Cl)cc(Cl)c1)CO2 [Compound 89] ({DOTA}-[dA][dR][dE][dK]([Suc-X1])[dR][dR][dA]-NH2) as the molecule, how does the EC50 read?
The EC50 was 0.01 to 0.1 µM.

Which EC50 does the source give for COc1cc2c(cc1-c1cccc(NC(=O)CCC(=O)NCCCC[C@@H](NC(=O)[C@@H](CCC(=O)O)NC(=O)[C@@H](CCC(=O)O)NC(=O)[C@@H](CCC(=O)O)NC(=O)[C@@H](CCC(=O)O)NC(=O)[C@@H](C)NC(=O)CN3CCN(CC(=O)O)CCN(CC(=O)O)CCN(CC(=O)O)CC3)C(=O)N[C@H](C)C(N)=O)c1)-c1c(c(C(=O)N3CCOCC3(C)C)nn1-c1cc(Cl)cc(Cl)c1)CO2 [Compound 90, 2,2′,2″-(10-((4R,7R,10R,13R,16R,19R)-19-(((R)-1-amino-1-oxopropan-2yl)carbamoyl)-7,10,13,16-tetrakis(2-carboxyethyl)-28-((3-(1-(3,5-dichlorophenyl)-3-(3,3-dimethylmorpholine-4-carbonyl)-7-methoxy-1,4-dihydrochromeno|4,3-clpyrazol-8-yl)phenyl)amino)-4-methyl-2,5,8,11,14,17,25,28-octaoxo-3,6,9,12,15,18,24-heptaazaoctacosyl)-1,4,7,10-tetraazacyclododecane-1,4,7-triyl)triacetic acid] ({DOTA}-[dA][dE][dE][dE][dE][dK]([Suc-X1])[dA]-NH2) here?
Its EC50 is 0.01 to 0.1 µM.

How did the EC50 turn out when COc1cc2c(cc1-c1cccc(NC(=O)CCC(=O)NCCCC[C@@H](NC(=O)[C@@H](C)NC(=O)[C@@H](C)NC(=O)[C@@H](CC(N)=O)NC(=O)[C@@H](CC(=O)O)NC(=O)[C@@H](CCCNC(=N)N)NC(=O)[C@@H](C)NC(=O)CN3CCN(CC(=O)O)CCN(CC(=O)O)CCN(CC(=O)O)CC3)C(N)=O)c1)-c1c(c(C(=O)N3CCOCC3(C)C)nn1-c1cc(Cl)cc(Cl)c1)CO2 [Compound 91] ({DOTA}-[dA][dR][dD][dN][dA][dA][dK]([Suc-X1])-NH2) was run?
Its EC50 is 0.01 to 0.1 µM.

— US20260137819A1 (Radionetics Oncology, Inc., priority 2022, published 2026)
